This passage reports Ki results from patent US6969730B2, “Amines as histamine-3 receptor ligands and their therapeutic applications” (Abbott Laboratories, priority 2001, dated 2005).

A value given as a limit tells only on which side of the number the result lay.

In this experiment the target is T1, histamine-3 receptors (H3 receptor) (Rattus norvegicus, UniProt Q9QYN8).
T1 construct: from tissue; host or cells: male Sprague-Dawley rat brain cortex membranes
T1 sequence (Q9QYN8 whole entry): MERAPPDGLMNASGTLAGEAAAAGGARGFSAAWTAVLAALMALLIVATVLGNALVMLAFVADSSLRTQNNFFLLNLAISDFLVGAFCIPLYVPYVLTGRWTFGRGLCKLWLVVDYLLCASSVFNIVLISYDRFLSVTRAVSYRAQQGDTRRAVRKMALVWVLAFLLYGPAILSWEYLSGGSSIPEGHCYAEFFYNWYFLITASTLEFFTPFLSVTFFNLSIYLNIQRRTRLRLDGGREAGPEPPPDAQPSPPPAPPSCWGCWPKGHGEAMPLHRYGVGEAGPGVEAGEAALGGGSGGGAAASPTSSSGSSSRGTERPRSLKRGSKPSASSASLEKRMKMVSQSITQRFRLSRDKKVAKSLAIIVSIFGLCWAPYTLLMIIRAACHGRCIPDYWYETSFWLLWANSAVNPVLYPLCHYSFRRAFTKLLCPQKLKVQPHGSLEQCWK
Kind of experiment: (3H)-N-α-methylhistamine binding to rat cortical membranes (histamine-3 receptor ligands). The settings on record: male Sprague-Dawley rat brain cortical membranes; (3H)-N-α-methylhistamine ~0.6 nM; 30 minutes at 25° C.; Cheng-Prusoff. The protocol: Briefly, male Sprague-Dawley rat brain cortices were homogenized (1 g tissue/10 mL buffer) in 50 mM Tris-HCl/5 mM EDTA containing protease inhibitor cocktail (Calbiochem) using a polytron set at 20,500 rpm. Homogenates were centrifuged for 20 minutes at 40,000×g. The supernatant was decanted, and pellets were weighed. The pellet was resuspended by polytron homogenization in 40 mL 50 mM Tris-HCl/5 mM EDTA with protease inhibitors and centrifuged for 20 minutes at 40,000×g. […] Rat cortical membranes (12 mg wet weight/tube) were incubated with (^3H)-N-α-methylhistamine (˜0.6 nM) with or without H3 receptor antagonists in a total incubation volume of 0.5 mL of 50 mM Tris-HCl/5 mM EDTA (pH 7.7). Test compounds were dissolved in DSMO to provide a 20 mM solution, serially diluted and then added to the incubation mixture prior to initiating the incubation assay by addition of the membranes. Thioperamide (3 μM) was used to determine nonspecific binding. Binding incubations were conducted for 30 minutes at 25° C. and terminated by addition of 2 mL of ice cold 50 mM Tris-HCl (pH 7.7) and filtration through 0.3% polyethylenimine-soaked Unifilter plates (Packard). These filters were washed 4 additional times with 2 mL of ice-cold 50 mM Tris-HCl and dried for 1 hour. Radioactivity was determined using liquid scintillation counting techniques. Results were analyzed by Hill transformation and Ki values were determined using the Cheng-Prusoff equation.
On to `C[C@@H]1CCCN1CCc1cc2cc(-c3noc(Cc4ccc(F)cc4)n3)ccc2o1` [Example 91, 5-(4-fluorobenzyl)-3-(2-{2-[(2R)-2-methylpyrrolidin-1-yl]ethyl}-1-benzofuran-5-yl)-1,2,4-oxadiazole], for which the affinity, expressed as Ki, was 10 nM.

For the compound `C[C@@H]1CCCN1CCc1cc2cc(-c3ccc(OC(F)(F)F)cc3)ccc2o1` [Example 129, (2R)-2-methyl-1-(2-{5-[4-(trifluoromethoxy)phenyl]-1-benzofuran-2-yl}ethyl)pyrrolidine], the affinity, expressed as Ki, was 150 nM.

As to `COc1cccc(-c2ccc3oc(CCN4CCC[C@H]4C)cc3c2)c1` [Example 120, (2R)-1-{2-[5-(3-methoxyphenyl)-1-benzofuran-2-yl]ethyl}-2-methylpyrrolidine], the Ki (usually the dissociation constant of the complex between target and ligand, obtained from inhibition or displacement) amounted to 23 nM.

The compound `C[C@@H]1CCCN1CCc1oc2ccc(-c3ccc(C#N)cc3)cc2c1-c1ccco1` [Example 102, 4-(3-(2-furyl)-2-{2-[(2R)-2-methylpyrrolidin-1-yl]ethyl}-1-benzofuran-5-yl)benzonitrile] showed a Ki of 18 nM.

As to `C[C@@H]1CCCN1CCc1cc2cc(-c3noc(-c4ccc(Cl)cc4)n3)ccc2o1` [Example 89, 5-(4-chlorophenyl)-3-(2-{2-[(2R)-2-methylpyrrolidin-1-yl]ethyl}-1-benzofuran-5-yl)-1,2,4-oxadiazole], the inhibition constant Ki amounted to 12 nM.

Compound `C[C@@H]1CCCN1CCc1oc2ccc(-c3ccc(C#N)cc3)cc2c1-c1ccsc1C=O` [Example 105, 4-(3-(2-formyl-3-thienyl)-2-{2-[(2R)-2-methyl-1-pyrrolidinyl]ethyl}-1-benzofuran-5-yl)benzonitrile] had a Ki of 6 nM.

As to `C[C@@H]1CCCN1CCc1cc2cc(-c3ccc(C(=O)C4CC4)cc3)ccc2o1` [Example 160, cyclopropyl[4-(2-{2-[(2R)-2-methyl-1-pyrrolidinyl]ethyl}-1-benzofuran-5-yl)phenyl]methanone], the Ki is 7.6 nM.

Turning to `Cc1noc(C)c1-c1ccc2oc(CCN3CCC[C@H]3C)cc2c1` [Example 161, 3,5-dimethyl-4-(2-{2-[(2R)-2-methyl-1-pyrrolidinyl]ethyl}-1-benzofuran-5-yl)isoxazole], the Ki is 1.6 nM.

Regarding `CC(O)c1cccc(-c2ccc3oc(CCN4CCC[C@H]4C)cc3c2)c1` (stereo partly drawn) [Example 137, 1-[3-(2-{2-[(2R)-2-methyl-1-pyrrolidinyl]ethyl}-1-benzofuran-5-yl)phenyl]ethanol], the Ki was 2.8 nM.

As to `Cc1cc(C)cc(-c2ccc3oc(CCN4CCC[C@H]4C)cc3c2)c1` [Example 132, (2R)-1-{2-[5-(3,5-dimethylphenyl)-1-benzofuran-2-yl]ethyl}-2-methylpyrrolidine], affinity was put at a Ki of 19 nM.

With `CC(=O)c1c(CCN2CCC[C@H]2C)oc2ccc(-c3ccc(C#N)cc3)cc12` [Example 159, 4-(3-acetyl-2-{2-[(2R)-2-methyl-1-pyrrolidinyl]ethyl}-1-benzofuran-5-yl)benzonitrile], the affinity corresponds to a Ki of 14 nM.

For `CCc1nc(-c2ccc3oc(CCN4CCC[C@H]4C)cc3c2)no1` [Example 99, 5-ethyl-3-(2-{2-[(2R)-2-methylpyrrolidin-1-yl]ethyl}-1-benzofuran-5-yl)-1,2,4-oxadiazole], the affinity, expressed as Ki, was 3.6 nM.

For `C[C@@H]1CCCN1CCc1cc2cc(-n3ccnc3)ccc2o1` [Example 154, 1-(2-{2-[(2R)-2-methyl-1-pyrrolidinyl]ethyl}-1-benzofuran-5-yl)-1H-imidazole], the inhibitory constant (Ki) is 2 nM.

For the compound `C[C@@H]1CCCN1CCc1cc2cc(-c3ccccc3Cl)ccc2o1` [Example 123, (2R)-1-{2-[5-(2-chlorophenyl)-1-benzofuran-2-yl]ethyl}-2-methylpyrrolidine], the Ki came to 16 nM.

Compound `C[C@@H]1CCC[C@H](C)N1CCc1cc2cc(-c3ccc(C(=O)N4CCOCC4)cn3)ccc2o1` [Example 50, 4-{[6-(2-{2-[-2,6-dimethylpiperidinyl]ethyl}-1-benzofuran-5-yl)-3-pyridinyl]carbonyl}morpholine] displayed a Ki of 37.1 nM.

`O=C(c1ccc(-c2ccc3oc(CCN4CCC[C@H]4CO)cc3c2)cc1)N1CCOCC1` [Example 34]: the Ki was 6.89 nM.

The compound `C[C@@H]1CCCN1CCc1cc2cc(-c3cccc(C#N)c3)ccc2o1` [Example 112, 3-(2-{2-[(2R)-2-methyl-1-pyrrolidinyl]ethyl}-1-benzofuran-5-yl)benzonitrile] showed a Ki of 3 nM.

`Cc1ccc(-c2ccc3oc(CCN4CCC[C@H]4C)cc3c2)cc1` [Example 117, (2R)-2-methyl-1-{2-[5-(4-methylphenyl)-1-benzofuran-2-yl]ethyl}pyrrolidine] returned a Ki of 110 nM.

The compound `CC1CCCN1CCc1cc2cc(-c3ccc(Cl)cc3)ccc2o1` (stereo not drawn) [Example 125, 1-{2-[5-(4-chlorophenyl)-benzofuran-2-yl]-ethyl}-2-methylpyrrolidine] gave a Ki of 63 nM.

With `C[C@@H]1CCCN1CCc1cc2cc(-c3noc(-c4ccccc4Cl)n3)ccc2o1` [Example 90, 5-(2-chlorophenyl)-3-(2-{2-[(2R)-2-methylpyrrolidin-1-yl]ethyl}-1-benzofuran-5-yl)-1,2,4-oxadiazole], the inhibition constant (Ki) came out at 21 nM.

For the compound `C[C@@H]1CCCN1CCc1cc2ccc(-c3ccc(C#N)cc3)cc2o1` [Example 86, 4-(2-{2-[(2R)-2-methyl-1-pyrrolidinyl]ethyl}-1-benzofuran-6-yl)benzonitrile], the Ki turned out to be 3.5 nM.

Turning to `Cc1nc(-c2ccc3oc(CCN4CCC[C@H]4C)cc3c2)no1` [Example 100, 5-methyl-3-(2-{2-[(2R)-2-methylpyrrolidin-1-yl]ethyl}-1-benzofuran-5-yl)-1,2,4-oxadiazole], the Ki worked out at 6 nM.

Turning to `C[C@@H]1CCCN1CCc1cc2cc(-c3cccc(C(=O)c4cccc(F)c4)c3)ccc2o1` [Example 151, (3-fluorophenyl)[3-(2-{2-[(2R)-2-methyl-1-pyrrolidinyl]ethyl}-1-benzofuran-5-yl)phenyl]methanone], the inhibition constant (Ki) worked out at 53 nM.

As for “4-[4-(2-{2-[-2,6-dimethylpiperidinyl]ethyl}-1-benzofuran-5-yl)benzoyl]morpholine [Example 29]”, the Ki came to 8.46 nM.

In turn, “4-(2-{2-[-2,6-dimethylpiperidinyl]ethyl}-1-benzofuran-5-yl)benzonitrile [Example 11]” displayed a Ki of 19.3 nM.

The compound “(2S)-1-(2-{5-[5-(4-morpholinylcarbonyl)-2-pyridinyl]-1-benzofuran-2-yl}ethyl)-2-pyrrolidinol [Example 62]” had a Ki of 112 nM.

As for `C[C@@H]1CCCN1CCc1cc2cc(-c3ccc(C#N)cc3)ccc2s1` [Example 165, 4-(2-{2-[(2R)-2-methyl-1-pyrrolidinyl]ethyl}-1-benzothien-5-yl)benzonitrile], the Ki is 16.8 nM.

For `CCON=C(C)c1cccc(-c2ccc3oc(CCN4CCC[C@H]4C)cc3c2)c1` [Example 141, 1-[3-(2-{2-[(2R)-2-methyl-1-pyrrolidinyl]ethyl}-1-benzofuran-5-yl)phenyl]ethanone O-ethyloxime], affinity was put at a Ki of 44 nM.

For `C[C@@H]1CCCN1CCc1cc2cc(-c3cccc(C(=O)c4cccs4)c3)ccc2o1` [Example 150, [3-(2-{2-[(2R)-2-methyl-1-pyrrolidinyl]ethyl}-1-benzofuran-5-yl)phenyl](2-thienyl)methanone], the Ki came out at 3.6 nM.

`CC(C)CC(=O)c1cccc(-c2ccc3oc(CCN4CCC[C@H]4C)cc3c2)c1` [Example 148, 3-methyl-1-[3-(2-{2-[(2R)-2-methyl-1-pyrrolidinyl]ethyl}-1-benzofuran-5-yl)phenyl]-1-butanone] displayed a Ki of 19 nM.

In turn, `C[C@@H]1CCCN1CCc1cc2cc(-c3cccnc3)ccc2o1` [Example 134, 3-(2-{2-[(2R)-2-methyl-1-pyrrolidinyl]ethyl}-1-benzofuran-5-yl)pyridine] had a Ki of 3.2 nM.

On to `C[C@@H]1CCCN1CCc1cc2cc(-c3noc(-c4ccc(F)c(Cl)c4)n3)ccc2o1` [Example 96, 5-(3-chloro-4-fluorophenyl)-3-(2-{2-[(2R)-2-methylpyrrolidin-1-yl]ethyl}-1-benzofuran-5-yl)-1,2,4-oxadiazole], for which the Ki was 223 nM.

On to `O=C(c1ccc(-c2ccc3oc(CCNCCCO)cc3c2)nc1)N1CCOCC1` [Example 64, 3-[(2-{5-[5-(4-morpholinylcarbonyl)-2-pyridinyl]-1-benzofuran-2-yl}ethyl)amino]-1-propanol], for which the Ki is at least 1000 nM.

In turn, `Cc1cc(-c2ccc3oc(CCN4CCC[C@H]4C)cc3c2)ccc1C#N` [Example 106, 2-methyl-4-(2-{2-[(2R)-2-methyl-1-pyrrolidinyl]ethyl}-1-benzofuran-5-yl)benzonitrile] yielded an inhibition constant Ki of 2.3 nM.

Consider `C[C@@H]1CCCN1CCc1cc2cc(-c3ccc(C#N)cc3)cc(F)c2o1` [Example 110, 4-(7-fluoro-2-{2-[(2R)-2-methyl-1-pyrrolidinyl]ethyl}-1-benzofuran-5-yl)benzonitrile], for which the affinity, expressed as Ki, was 6 nM.

Regarding `COc1ccc(Cc2nc(-c3ccc4oc(CCN5CCC[C@H]5C)cc4c3)no2)cc1` [Example 92, 5-(4-methoxybenzyl)-3-(2-{2-[(2R)-2-methylpyrrolidin-1-yl]ethyl}-1-benzofuran-5-yl)-1,2,4-oxadiazole], the Ki is 15 nM.
